Data on 1 compound can be found in patent US20240343666A1, “PERINAPHTHENONE COMPOUND AND USE THEREOF” (INSTITUTE OF MEDICINAL BIOTECHNOLOGY, CHINESE ACADEMY OF …, priority 2021, published 2024).

This experiment concerns the target TRIM25 (Homo sapiens, UniProt Q14258). Type of experiment: cell-based. Set-up: endogenous in cells.

Chain of TRIM25 (Q14258 whole entry, species assumed): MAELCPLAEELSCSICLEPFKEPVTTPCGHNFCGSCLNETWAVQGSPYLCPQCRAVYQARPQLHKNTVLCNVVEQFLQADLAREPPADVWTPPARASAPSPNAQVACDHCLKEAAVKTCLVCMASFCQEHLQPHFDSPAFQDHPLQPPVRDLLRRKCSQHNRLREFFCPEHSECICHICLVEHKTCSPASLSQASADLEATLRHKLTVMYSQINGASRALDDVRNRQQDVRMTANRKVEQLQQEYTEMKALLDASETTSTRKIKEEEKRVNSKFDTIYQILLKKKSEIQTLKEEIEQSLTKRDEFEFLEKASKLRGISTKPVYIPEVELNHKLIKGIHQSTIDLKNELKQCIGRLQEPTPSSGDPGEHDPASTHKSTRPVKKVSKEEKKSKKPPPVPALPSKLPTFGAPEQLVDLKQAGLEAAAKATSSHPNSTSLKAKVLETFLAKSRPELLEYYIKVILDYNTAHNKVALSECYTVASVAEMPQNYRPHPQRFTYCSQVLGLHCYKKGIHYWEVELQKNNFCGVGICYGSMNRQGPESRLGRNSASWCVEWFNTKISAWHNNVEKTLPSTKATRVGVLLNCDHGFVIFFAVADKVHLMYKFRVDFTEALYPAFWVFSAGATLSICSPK

Turning to `C/C(=C\CC/C(C)=C/C[C@]1(O)C(=O)c2c(O)cc(C)c3c(O)c(C)c(O)c(c23)C1=O)CC/C=C(\CO)CC[C@@H](O)C(C)(C)O` [Compound C1], the “Anti-influenza activity after TRIM25 knockdown” value is “significantly affected” and the “Anti-influenza activity on overexpression of TRIM25 in TRIM25 knockout cell line” value is “restore the anti-influenza activity of compound C1 to a normal cell level”.
